Source: patent US12234288B2, “Immunogenic arginase 2 polypeptides” (IO Biotech ApS, priority 2018, dated 2025)
“Also recorded” adds a separate entry of the source.

Columns and labels:
[1] = test system: PBMCs (CD4+ and CD8+ T cells); assay: Intracellular cytokine staining (IFNγ, TNFα) of peptide-stimulated PBMCs by flow cytometry; type: cell-based, human; conditions: for double positive (DP) CD4+ cells: FIG. 6; for intracellular cytokine staining for IFNy and TNFα production: healthy donors and cancer patients with solid tumors, Example 2, FIG. 14B/15D
Description: Intracellular staining of cell cultures was performed after PBMCs were stimulated with arginase-derived peptides (or incubated with no peptide as a control) for 5 hours in the presence of BD GolgiPlug™ (added after the first hour of peptide stimulation). Stimulated cells were stained with fluorescently labeled antibodies for surface markers (CD3, CD4, CD8) and thereafter permeabilized by using Fixation/Permeabilization and Permeabilization Buffer (eBioscience, cat. 00-{5123-43), according to manufacturer's instructions. Permeabilized cells were then stained with fluorochrome-labeled antibodies for IFNγ and TNFα. Flow cytometry analysis was performed on a FACSCanto™ II (BD Biosciences). Antibodies used: IFNγ-APC (cat.341117), TNFα-[…] BV421 (cat.562783), CD4-FITC (cat.347413), CD8-PerCP (cat.345774), CD3-APC-H7 (cat. 560275) (all from BD Biosciences), dead cells stain-FVS510 (564406, BD Biosciences) according to manufacturer's instructions.
(§1) Intracellular staining of cell cultures was performed on PBMCs after one week of ARG2-derived peptide stimulation in vitro. For the assay, 9×10^5 PBMCs were re-stimulated with ARG2-derived peptides (or incubated with no peptide as a control) for 5 hours in the presence of BD GolgiPlug™ (added after the first hour of peptide stimulation). Stimulated cells were stained with fluorescently labeled antibodies for surface markers (CD3, CD4, CD8) and thereafter permeabilized by using Fixation/Permeabilization and Permeabilization Buffer (eBioscience, cat. 00-{5123-43), according to manufacturer's instructions. Permeabilized cells were then stained with fluorochrome-labeled antibodies for IFNγ and TNFα. Flow cytometry analysis was performed on a FACSCanto™ II (BD Biosciences). Antibodies used: IFNγ-APC, TNFα-BV421, CD4-PerCP, CD8-FITC, CD3-APC-H7, CD4-FITC, CD8-PerCP, and dead cells stain-FVS510 (all from BD Biosciences) according to manufacturer's instructions. For intracellular cytokine staining to detect cytokine production of ARG2-specific T cells in response to target cells, 5×10^5 ARG2 specific cells were incubated with 2.5×10^5 target cells for 5 hours with GolgiPlug™ added after the first hour.

[2] = test system: ARG2-specific T cells; assay: ARG2-specific CD4+ T cell culture: IFNy ELISPOT and intracellular cytokine staining toward peptide or target cells; type: cell-based, human; conditions: for recognition of peptide-pulsed cells by ARG2-specific T cells: IFNy ELISPOT, FIG. 17A; for specificity of the ARG2-specific T cell culture to peptide: intracellular cytokine staining for TNFα and IFNy and IFNy ELISPOT, FIG. 16A/B
Description: ELISPOT assays with ARG2-specific T cells (effector cells) and various immune or cancer cells as target cells (target cells) were setup by placing 1-5×10^4 effector cells (as indicated) and 1-2.5×10^4 target cells (as indicated) in the bottom of an ELISPOT well. Peptide pulsing of target cells were performed by incubation of cells with 20 μM peptide for lhr followed by two washes to remove unbound peptide. These cells served as positive control. Effector cells plated without target cells served as negative control. All conditions were setup in triplicates or quadruplicates.
as §1
The ARG2-specific T cell culture was established by initial stimulation of PMBCs from a prostate cancer patient with irradiated ARG2-1 loaded autologous mature dendritic cells. The following day IL-12 (20 U/ml) and IL-7 (40 U/ml) was added. PBMCs were restimulated every 8 days with ARG2-1 peptide loaded autologous DCs followed by addition of IL-2 (120 U/ml) the next day. ARG2-specific T cells were enriched using IFNy enrichment kit (MiltenyiBiotec) after 4 stimulations. Cells were expanded and ARG2-specific T cells were further enriched using CD4+ enrichment kit (MiltenyiBiotec).
For mRNA, DCs or cancer cells were transfected with ARG1-DC-LAMP mRNA, ARG2-DC-LAMP mRNA or control mRNA encoding eGFP using electroporation parameters as previously described. Briefly, cells were washed twice in Opti-MEM medium (Thermo Scientific) and adjusted to a final cell concentration of 9-12×10^6 cells/ml. 350 μl cell suspension was preincubated on ice for 5 minutes before addition of 10 μg mRNA. The cell suspension was then quickly transferred into a 2-mm (cancer cells) or 4-mm (DCs) gap electroporation cuvette and electroporated (ref: OM paper). After electroporation, cells were quickly transferred to a dish with pre-warmed medium and incubated in humidified atmosphere with 5% CO2 before use for different experimental analysis. mRNA transfected cells were rested for 1 hr before they were setup in ELISPOT assay or rested overnight before set up in intracellular cytokine staining assay. Electroporation efficiency was determined 24 hours post transfection by FACS analysis of the GFP transfected cells. […]

| Sequence | double positive (DP) CD4+ cells ([1]; healthy donor Buf-M-01, IFN-gamma and TNF-alfa) [%] | double positive (DP) CD4+ cells ([1]; healthy donor Buf-M-02, IFN-gamma and TNF-alfa) [%] | intracellular cytokine staining for IFNy and TNFα production [1] | CD8+ T cell response in intracellular cytokine staining ([1]; one cancer patient, FIG. 9) | CD8+ DP cells ([1]; prostate cancer patient UR12, control 0.5%, FIG. 9) [%] | CD4+ T cell response in intracellular cytokine staining ([1]; two healthy donors, Example 1, FIG. 6) | recognition of peptide-pulsed cells by ARG2-specific T cells ([2]; MONO-MAC-1 cells) | recognition of peptide-pulsed cells by ARG2-specific T cells ([2]; OCI-AML2 cells) | recognition of peptide-pulsed cells by ARG2-specific T cells ([2]; THP-1 cells) | specificity of the ARG2-specific T cell culture to peptide [2] |
| --- | --- | --- | --- | --- | --- | --- | --- | --- | --- | --- |
| LQTRVHSILKKSVHSVAVIG (listed as Homo sapiens) [ARG2_1, polypeptide derived from human Arginase2, aa11-30] | 0.2 | 0.1 | primarily showed CD4+ responses | release more of IFN-gamma (y-axis) and TNF-alfa (x-axis) | 0.9 | reacting specifically; also recorded: release both IFN-gamma (y-axis) or TNF-alfa (x-axis) | effectively recognized | effectively recognized | effectively recognized | highly specific |
| SLRGSLSRLLQTRVHSILKKSVHSVAVIGAPFS (listed as Homo sapiens) [A2L2, long ARG2 peptide, aa2-34, 33-mer] |  |  | only CD4+ responses |  |  |  |  |  |  | highly specific |
